Assay results taken from patent publication US20110207814A1, “Combination Therapy for Breast Cancer Treatment” (priority 2009, published 2011).
Entries after “also recorded” stand apart in the source; their conditions may differ.

Experiments:
[1] = test system: MDA-MB-231; assay: Tumor volume of subcutaneous MDA-MB-231 (with or without MSCs) in nude BALB/c mice; assay type: in vivo
Experimental: To validate our in vitro studies, female nude BALB/c mice were injected subreast cancerutaneously with 10^6 matrigel-resuspended MDA-MB-231 alone or in combination with 10^6 MSCs, as per the experimental design described in FIG. 7A. Mice were divided into the following experimental groups (n=5 per group): (A) breast cancer cells injected alone; (B) breast cancer cells injected in combination with MSCs; (C) group B plus AMD3100 treatment; (D) group C plus IL-1ra co-treatment. All groups were treated with carboplatin at days 8 and 10 following initial injection of cells, and the animals euthanized at the experimental endpoint of day 12 (D12).
Female nude BALB/c mice (4 weeks) were obtained from Harlan Laboratories (Indianapolis, Ind.) and housed in a laminar flow hood at an AALAC-accredited facility. The use of mice was approved by the Institutional Animal Care and Use Committee, New Jersey Medical School (Newark, N.J.). MDA-MB-231 (10^6), alone or in combination with MSCs (10^6), in 0.1 mL and equal volume of BD Matrigel (BD Biosciences, Bedford, Mass.) were injected by subreast cancerutaneous route in the nude mice (Day 0, D0). After 4 days, the tumors were injected with AMD3100 alone or in combination with IL-1ra or vehicle (hereafter termed ‘treatment’). Mice were given a second ‘treatment’ at D8 along with a first dose of chemotherapy delivered intra-peritoneally. A second dose of chemotherapy was given at D10 and the mice euthanized at D12.
In FIG. 7, the effects of AMD3100 and carboplatin on tumor volume are represented. The method by which mice were treated is shown in (A). (B) Female BALB/c (n=5) were injected subreast cancerutaneously with matrigel and 10^6 MDA-MB-231 alone or in combination with 10^6 MSCs. The mean volumes at the first injection (day 8, D8) are normalized to 100% and the change in volumes at D10 and D12 are presented as mean±SD.

[2] = test system: MDA-MB-231
Experimental: (§1) Cultures of breast cancer cells and MSCs, alone or in co-culture, from each experimental setup were assayed for cellular proliferation and viability using the CyQuant Cell Proliferation Assay Kit (Molecular Probes; Eugene, Oreg.) and CellTiter-Blue Cell Viability Assay (Promega), respectively, according to manufacturer's specific instructions.
(§2) For assessment of viability, CellTiter-Blue reagent was added to cells grown in 96-well plates, and then incubated for 4 hours at 37° C. Following incubation, wells were read using a fluorescence microplate reader at 560 nm excitation/590 nm emission. Percent viability was calculated from a reference using untreated healthy cells, which were considered 100% viable, and cell-free wells containing reagent alone, which were considered 0% viable.
(§3) Breast cancer cells, cultured alone or with MSCs for 12 days, were treated with AMD3100, or untreated. After 48 hours, all cultures were exposed to carboplatin, with re-added AMD3100 in cultures that had initial AMD3100. After 72 hours, the viable cells were counted (A and B), and presented (C and D) as the mean±SD, n=3. Whole cell extracts from these experiments were analyzed by immunoblot for caspase-3 (E). Membranes were stripped and re-probed with β-actin for normalization. Representative blots are shown, n=3.
(§4) Breast cancer cells cultured in the presence or absence of MSCs for 12 days were treated for 48 hours with AMD3100, or untreated. Following 48 hours, treated and untreated cells were exposed to carboplatin for 72 hours to induce cell death. […] At the end of this regiment cell proliferation (A and B) and viability (C and D) were assessed. The results are presented as the mean±SD, n=3.

[3] = test system: T47D
Experimental: as §1, §2, §3, §4

[4] = test system: breast cancer cells; settings: 12-day co-culture with MSCs, AMD3100 for the last 48 hours, compared to no treatment
Experimental: We studied cell cycle phase of 12-day co-cultured breast cancer cells, with or without AMD3100, as described for FIG. 2. Breast cancer cells cultured alone served as control. […] FIG. 3B illustrates a representative histogram of the proportion of cycling (peaks 2 and 3) versus non-cycling (peak 1) MDA-MB-231 co-cultured with MSCs, with (right) or without AMD3100 (left).
Breast cancer cells and MSC co-cultures were incubated with anti-cytokeratin primary and FITC-anti IgG secondary antibodies to label the breast cancer cell fraction. Cells were then treated with RNase A (1 mg/ml) and fixed with cold 70% ethanol. Cells were stained with 20 μg/ml propidium iodide (PI) solution and transferred to round bottom tubes for DNA analysis by BD FACScan. Double positive cells identified only the desired cellular fraction, consisting of breast cancer cells that incorporated the DNA dye. Cultures incubated with FITC anti-IgG alone were used as isotype controls. All analyses were performed using BD CellQuest software and percent statistics were given.
Breast cancer cells, alone or 12-day cultures with MSCs were treated with AMD3100 for the last 48 hours or untreated. At the end of the assay, cells were co-labeled with anti-cytokeratin and propidium iodide and then analyzed by flow cytometry. Results are presented as the mean percent cycling cells (S+G2/M phases)±SD, n=3 (B). […]

[5] = test system: MDA-MB-231; remark: listed apart in the source
Experimental: The study of the molecular disruption of CXCL12-CXCR4 with a CXCR4 antagonist, AMD3100 was expanded. We first examined the effects of AMD3100 on the proliferation of MDA-MB-231 and T47D, in co-culture with MSCs (FIGS. 1D and 1E), in the presence of two different concentrations of the antagonist (10 and 100 ng/ml) for the 48-hour culture. Parallel cultures contained vehicle.
Some studies also looked at AMD3100 in long-term breast cancer cell/MSC co-cultures. In this set of studies we determined the effect of AMD3100 when breast cancer cells were cultured with MSCs for over 48 hours since this will recapitulate in situ when breast cancer cells are expected to contact MSCs for long periods. […] Control cultures contained vehicle (−) and 2-day exposure to AMD3100 (D2).
as §1
For determination of proliferation, cells grown in 96-well plates were frozen overnight at −70° C. The next day, thawed cells were incubated in CyQuant GR dye/cell-lysis buffer for 5 minutes at room temperature, and examined using a fluorescence microplate reader at 480 nm excitation/520 nm emission. Proliferation was calculated from a standard curve of known numbers of breast cancer cells and MSCs. To accurately assess the proliferation of breast cancer cells, but not MSC proliferation in co-culture, proliferation of MSCs grown alone were subtracted from the total cellular proliferation recorded.

[6] = test system: primary and metastatic breast cancer; settings: mice; cited from earlier work
[7] = test system: T47D; assay: CyQuant proliferation of T47D, alone or in co-culture with MSCs
[8] = test system: hematopoietic stem cells (HSCs); settings: potential side effect in combination with chemotherapy; cited from earlier work
[9] = molecular target: CXCR7 (Homo sapiens, UniProt P25106); settings: cited from earlier work
[10] = test system: caspase-3; settings: breast cancer cells isolated from co-culture, carboplatin added with AMD3100
Experimental: Whole cell extracts from breast cancer cells and MSCs were prepared in accordance with accepted methods and 20 μg were analyzed by western blots using 4-20% SDS-PAGE (Bio-Rad, Hercules, Calif.). The proteins were transferred onto polyvinylidene difluoride membranes (Perkin Elmer Life Sciences, Boston, Mass.). Membranes were incubated overnight with primary antibodies and then detected the following day by 2 hour incubation with HRP-conjugated IgG. All primary and secondary antibodies were used at final dilutions of 1/1000 and 1/2000, respectively. HRP was developed with chemiluminscence detection reagent (Perkin Elmer Life Sciences). The membranes were stripped with Restore Stripping Buffer (Pierce, Rockford, Ill.) for reprobing with other antibodies.

[11] = test system: naïve breast cancer cells; assay: Transwell assay: proliferation of naïve breast cancer cells with MSCs in the inner wells; assay type: cell-based, human; settings: inner wells: MSCs from co-cultures with AMD3100, compared to antagonist-treated MSCs alone; 48 hours
Experimental: Using mechanistic studies, we next asked whether breast cancer cells proliferation by AMD3100 requires contact between MSCs and breast cancer cells. […] To address this question, we utilized a transwell assay in which “naïve” breast cancer cells, which were not previously exposed to MSCs or AMD3100, were seeded in the outer wells. MSCs from co-cultures with AMD3100 or vehicle were added to the inner wells. In parallel, only vehicle was added to the inner wells.
Breast cancer cells (5×10^4) were added to the outer well of 24-well transwell cultures, 0.4 μM insert (BD Falcon). In parallel, breast cancer cells were separated from co-cultures with MSCs by positive selection with anti-cytokeratin-conjugated; pan anti-mouse IgG Dynabeads (Invitrogen). MSCs from the negative fraction were then added to the inner wells of the transwell chamber in order to determine the effects of MSC-derived soluble factors on breast cancer cell proliferation. For neutralization of soluble IL-1α and IL-1β, anti-IL-1RI was titrated into the 24-well plates.
MSCs were co-cultured with breast cancer cells for 12 days with, or without AMD3100. The MSCs were selected and then added to the inner wells of transwell cultures. Naïve breast cancer cells were placed in the outer wells. After 48 hours, breast cancer cells were counted and the results presented as mean±SD, n=3 (A and B). […]

[12] = test system: IL-1β; settings: MDA-MB-231 transwell cultures, MSCs obtained from AMD3100-treated co-cultures, 48 hours
Experimental: (§5) To assess the factor(s) responsible for breast cancer cell proliferation (FIGS. 4A and 4B), media from representative (MDA-MB-231) transwell cultures were analyzed with a cytokine/growth factor microarray.
(§6) Cytokine production by MSCs in the transwell assay was assessed using the Human Cytokine Antibody Array 5 (RayBiotech; Norcross, Ga.). Briefly, after 48 hours of culture, the transwell was removed and the breast cancer cell growth media collected for cytokine determination. Background levels obtained with media alone were subtracted. The densities of spots were quantitated with UN-SCAN-IT densitometry software (Silk Scientific; Orem, Utah).

[13] = test system: IL-1α; settings: MDA-MB-231 transwell cultures, MSCs obtained from AMD3100-treated co-cultures, 48 hours
Experimental: as §5, §6

[14] = MDA-MB-231 + MSCs, AMD3100 48 hours, then carboplatin 72 hours in the absence of AMD3100 (FIG. 6)
[15] = T47D + MSCs, AMD3100 48 hours, then carboplatin 72 hours in the absence of AMD3100 (FIG. 6)

CXCR7, sequence (P25106 whole entry, species assumed): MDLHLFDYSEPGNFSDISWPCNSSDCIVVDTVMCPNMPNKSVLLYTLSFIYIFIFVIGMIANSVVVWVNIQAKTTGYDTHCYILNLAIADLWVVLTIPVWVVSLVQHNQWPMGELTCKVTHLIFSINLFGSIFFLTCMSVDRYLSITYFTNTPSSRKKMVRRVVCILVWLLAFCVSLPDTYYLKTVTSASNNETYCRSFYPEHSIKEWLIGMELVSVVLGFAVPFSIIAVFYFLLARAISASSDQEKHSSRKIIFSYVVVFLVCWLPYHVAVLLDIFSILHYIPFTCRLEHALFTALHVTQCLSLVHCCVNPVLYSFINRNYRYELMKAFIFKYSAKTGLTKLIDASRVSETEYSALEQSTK

In the case of “IL-1ra: IL-1 receptor antagonist used to block the activity of IL-1 in the mouse tumor model”, the “mean tumor volume by D12” value ([1]; group D: group C plus IL-1ra co-treatment, effect on the AMD3100 response) is reported as “negated this response”.

With `c1cc(CN2CCCNCCNCCCNCC2)ccc1CN1CCCNCCNCCCNCC1` [AMD3100] the “cell viability with AMD3100” value [2] was “no change in cell viability”, the “resistance to carboplatin when chemotherapy was added with AMD3100” value ([2]; MDA-MB-231 + MSCs 12 days, AMD3100 48 hours then carboplatin with re-added AMD3100 72 hours) was “resistance was compromised” and the “viability after AMD3100 pre-treatment and chemotherapy without the antagonist” value [2, 14] was “effect on cell proliferation and viability was lost”. For the same compound, the “cell viability with AMD3100” value [3] was “no change in cell viability”, the “resistance to carboplatin when chemotherapy was added with AMD3100” value ([3]; T47D + MSCs 12 days, AMD3100 48 hours then carboplatin with re-added AMD3100 72 hours) was “resistance was compromised” and the “viability after AMD3100 pre-treatment and chemotherapy without the antagonist” value [3, 15] was “effect on cell proliferation and viability was lost”. For the same compound, the “cycling cells (S/G2/M phase)” value [4] was “significant (p<0.05) increase in cycling cells”, the “proliferation in 12-day (D12) co-culture with MSCs” value ([5]; MDA-MB-231 + MSCs 12 days, optimal AMD3100 during the last 48 hours, effect on the MSC-mediated decrease) was “significantly (p<0.05) reversed” and the “AMD3100 concentration of sensitivity (optimal dose for proliferation)” value ([5]; MDA-MB-231 + MSCs, 48-hour culture) was 10 ng/mL. The “proliferation of breast cancer cells in co-cultures with MSCs” value ([5]; MDA-MB-231 + MSCs, 48-hour culture, AMD3100 10 and 100 ng/ml, compared to breast cancer cells alone (FIG. 1D)) was “promoted the proliferation”, the “cell proliferation after AMD3100 pre-treatment and chemotherapy without the antagonist” value [5, 14] was “effect on cell proliferation and viability was lost” and the “time at which the increase in proliferation began” value ([5]; MDA-MB-231, optimal AMD3100 dose) was 1 h. For the same compound, the “optimum time for AMD3100-mediated proliferation” value ([5]; MDA-MB-231, optimal AMD3100 dose, various times (FIG. 1F)) was 48 h, the “proliferation of breast cancer cells alone” value ([5]; MDA-MB-231 cultured alone, 48 hours, AMD3100) was “decrease in cell proliferation” and the “effect on primary and metastatic breast cancer” value [6] was “can decrease primary and metastatic breast cancer in mice”. The “overall survival for experimental lung metastases” value [6] was “no effect on the overall survival”, the “proliferation in 12-day (D12) co-culture with MSCs” value ([7]; T47D + MSCs 12 days, optimal AMD3100 during the last 48 hours, effect on the MSC-mediated decrease) was “significantly (p<0.05) reversed” and the “AMD3100 concentration of sensitivity (optimal dose for proliferation)” value ([7]; T47D + MSCs, 48-hour culture) was 100 ng/mL. The “proliferation of breast cancer cells in co-cultures with MSCs” value ([7]; T47D + MSCs, 48-hour culture, AMD3100 10 and 100 ng/ml, compared to breast cancer cells alone (FIG. 1E)) was “promoted the proliferation”, the “cell proliferation after AMD3100 pre-treatment and chemotherapy without the antagonist” value [7, 15] was “effect on cell proliferation and viability was lost” and the “proliferation of breast cancer cells alone” value ([7]; T47D cultured alone, 48 hours, AMD3100) was “decrease in cell proliferation”. The “relation of proliferation to AMD3100 concentration” value ([7]; T47D, closed circles FIG. 1E, 10 and 100 ng/ml) was “inversely related to AMD3100 concentration”, the “time at which the increase in proliferation began” value ([7]; T47D, optimal AMD3100 dose, relative to MDA-MB-231) was “at a later time point” and the “optimum time for AMD3100-mediated proliferation” value ([7]; T47D, optimal AMD3100 dose, various times (FIG. 1G)) was 48 h. For the same compound, the “mobilization of hematopoietic stem cells” value [8] was “can mobilize hematopoietic stem cells”, the “action on CXCR7” value [9] was “allosteric agonist of CXCR7” and the “mean tumor volume by D12” value ([1]; group C: breast cancer cells + MSCs, tumors injected with AMD3100, carboplatin at days 8 and 10) was “significant reduction in tumor volume; also recorded: significantly (p<0.05) reversed the chemoprotective effect of MSCs”. The caspase-3 immunoreactivity [10] was “increased caspase-3 immunoreactivity”, the “naïve breast cancer cell proliferation in transwells” value [11] was “significant (p<0.05) increase” and the “IL-1β in transwell media, fold greater” value [12] was 5 fold. The “IL-1α in transwell media, fold greater” value [13] was 3 fold.

For `N.N.O=C([O-])C1(C(=O)[O-])CCC1.[Pt+2]` [carboplatin], the “response to carboplatin (viable cells / viability) in co-culture with MSCs” value ([2]; MDA-MB-231 + MSCs 12 days, carboplatin 72 hours, no AMD3100, compared to breast cancer cells alone) was “chemoresistant”, the “response to carboplatin (viable cells / viability) in co-culture with MSCs” value ([3]; T47D + MSCs 12 days, carboplatin 72 hours, no AMD3100, compared to breast cancer cells alone) was “chemoresistant” and the “mean tumor volume by D12” value ([1]; group A: breast cancer cells injected alone, carboplatin at days 8 and 10) was “drastic reduction in mean tumor volume”. For the same compound, the “mean tumor volume by D12” value ([1]; group B: breast cancer cells co-injected with MSCs, carboplatin at days 8 and 10, effect on the reduction seen in group A) was “significantly (p<0.05) impeded”.
